Measurements published in patent publication US9040533B2, “Oxime-substituted-quinoxaline-type piperidine compounds as ORL-1 modulators” (priority 2012, dated 2015).

Legend:
Assay in all cases: biochemical
[1] = target: T1, CYP1A2 (Homo sapiens, UniProt P05177)
T1 sequence (P05177 1-516): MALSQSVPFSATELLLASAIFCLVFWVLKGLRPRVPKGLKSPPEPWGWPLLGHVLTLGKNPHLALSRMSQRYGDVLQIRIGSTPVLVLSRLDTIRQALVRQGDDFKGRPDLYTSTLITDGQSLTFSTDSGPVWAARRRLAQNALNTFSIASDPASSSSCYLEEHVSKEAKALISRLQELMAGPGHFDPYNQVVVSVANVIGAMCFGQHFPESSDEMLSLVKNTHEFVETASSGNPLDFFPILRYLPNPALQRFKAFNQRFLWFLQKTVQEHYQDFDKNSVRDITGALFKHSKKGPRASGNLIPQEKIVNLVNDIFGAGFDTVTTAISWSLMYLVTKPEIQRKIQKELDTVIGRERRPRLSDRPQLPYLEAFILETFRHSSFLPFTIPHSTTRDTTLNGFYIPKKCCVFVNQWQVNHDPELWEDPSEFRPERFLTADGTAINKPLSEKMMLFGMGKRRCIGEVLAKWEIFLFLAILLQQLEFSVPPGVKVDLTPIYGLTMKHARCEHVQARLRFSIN

[2] = target: CYP2C9 (Homo sapiens, UniProt P11712)
Chain of CYP2C9 (P11712 whole entry): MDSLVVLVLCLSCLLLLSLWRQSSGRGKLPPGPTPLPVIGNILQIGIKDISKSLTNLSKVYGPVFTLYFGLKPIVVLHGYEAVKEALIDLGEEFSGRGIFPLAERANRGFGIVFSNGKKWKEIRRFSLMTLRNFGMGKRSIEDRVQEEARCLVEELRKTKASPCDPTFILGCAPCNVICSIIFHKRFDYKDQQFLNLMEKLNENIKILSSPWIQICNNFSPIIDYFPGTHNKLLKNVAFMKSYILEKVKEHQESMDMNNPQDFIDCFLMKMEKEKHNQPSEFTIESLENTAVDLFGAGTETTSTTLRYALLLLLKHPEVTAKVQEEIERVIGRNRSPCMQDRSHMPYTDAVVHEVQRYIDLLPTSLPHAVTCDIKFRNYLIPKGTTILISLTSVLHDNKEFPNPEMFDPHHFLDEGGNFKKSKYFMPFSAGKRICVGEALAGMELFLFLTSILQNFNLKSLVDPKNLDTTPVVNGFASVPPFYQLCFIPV

[3] = target: CYP2C19 (Homo sapiens, UniProt P33261)
Chain of CYP2C19 (P33261 whole entry): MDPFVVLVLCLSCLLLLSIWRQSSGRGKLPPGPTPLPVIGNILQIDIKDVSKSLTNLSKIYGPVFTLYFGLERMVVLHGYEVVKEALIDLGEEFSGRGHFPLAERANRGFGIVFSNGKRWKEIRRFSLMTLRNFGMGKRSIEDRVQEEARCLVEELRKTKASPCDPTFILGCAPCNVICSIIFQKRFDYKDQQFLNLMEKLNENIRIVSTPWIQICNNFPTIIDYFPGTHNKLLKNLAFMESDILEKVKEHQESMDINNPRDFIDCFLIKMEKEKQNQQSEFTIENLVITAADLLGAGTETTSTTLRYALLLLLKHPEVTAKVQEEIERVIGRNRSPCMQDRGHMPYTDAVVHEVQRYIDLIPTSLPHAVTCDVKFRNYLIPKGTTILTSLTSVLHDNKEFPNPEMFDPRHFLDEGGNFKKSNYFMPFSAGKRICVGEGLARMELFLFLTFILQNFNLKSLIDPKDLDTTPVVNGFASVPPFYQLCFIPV

[4] = target: CYP2D6 (Homo sapiens, UniProt P10635)
Chain of CYP2D6 (P10635 whole entry): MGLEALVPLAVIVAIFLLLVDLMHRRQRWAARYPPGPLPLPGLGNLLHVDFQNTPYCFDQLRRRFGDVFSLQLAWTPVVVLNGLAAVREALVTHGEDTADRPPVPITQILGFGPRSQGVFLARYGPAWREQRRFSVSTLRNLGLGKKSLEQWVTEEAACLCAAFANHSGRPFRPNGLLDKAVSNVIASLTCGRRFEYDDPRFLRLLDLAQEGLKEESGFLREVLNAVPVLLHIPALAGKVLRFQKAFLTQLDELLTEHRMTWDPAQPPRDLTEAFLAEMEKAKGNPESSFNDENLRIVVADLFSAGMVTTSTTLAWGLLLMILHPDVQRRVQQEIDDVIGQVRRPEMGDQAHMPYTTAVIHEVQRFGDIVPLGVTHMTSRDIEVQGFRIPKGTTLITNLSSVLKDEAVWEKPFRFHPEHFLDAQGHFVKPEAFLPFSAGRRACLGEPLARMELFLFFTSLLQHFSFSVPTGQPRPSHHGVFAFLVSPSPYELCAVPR

[5] = target: CYP3A4 (Homo sapiens, UniProt P08684)
Chain of CYP3A4 (P08684 whole entry): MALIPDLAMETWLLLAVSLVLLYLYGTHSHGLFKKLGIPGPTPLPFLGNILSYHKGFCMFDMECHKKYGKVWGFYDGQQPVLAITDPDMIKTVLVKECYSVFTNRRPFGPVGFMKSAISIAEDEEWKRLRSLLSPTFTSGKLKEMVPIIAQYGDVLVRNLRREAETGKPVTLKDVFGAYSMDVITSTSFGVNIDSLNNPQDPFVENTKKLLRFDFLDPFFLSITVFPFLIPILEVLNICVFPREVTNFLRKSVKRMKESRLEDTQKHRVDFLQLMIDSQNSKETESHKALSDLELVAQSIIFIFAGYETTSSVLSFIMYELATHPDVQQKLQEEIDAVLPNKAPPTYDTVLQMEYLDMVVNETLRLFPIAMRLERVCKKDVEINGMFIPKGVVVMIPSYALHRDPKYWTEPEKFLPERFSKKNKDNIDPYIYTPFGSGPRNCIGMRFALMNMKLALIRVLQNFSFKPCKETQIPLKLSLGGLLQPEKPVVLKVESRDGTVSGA

Measured: IC50

C/C(=N\OCC(=O)O)c1nc2ccccc2n([C@H]2C[C@H]3CCC[C@@H](C2)N3C2CC3CCCCC(C3)C2)c1=O (stereo partly drawn) [Compound 24, 2-((E)-1-(4-((1R,3R)-9-(bicyclo[4.3.1]decan-8-yl)-9-azabicyclo[3.3.1]nonan-3-yl)-3-oxo-3,4-dihydroquinoxalin-2-yl)ethylideneaminooxy)acetic acid]
> 20 µM: all assays above

CCON=C(C(=O)O)c1nc2ccccc2n([C@H]2C[C@H]3CCC[C@@H](C2)N3C2CC3CCCC(C3)C2)c1=O (stereo partly drawn) [Compound 30]
> 20 µM: all assays above

CC(C)ON=C(C(=O)O)c1nc2ccccc2n([C@H]2C[C@H]3CCC[C@@H](C2)N3C2CC3CCCC(C3)C2)c1=O (stereo partly drawn) [Compound 31]
> 20 µM: all assays above

CCON=C(C(=O)O)c1nc2ccccc2n([C@H]2C[C@H]3CCC[C@@H](C2)N3C2CC3CCCCC(C3)C2)c1=O (stereo partly drawn) [Compound 32, 2-(4-((1R,3R)-9-(bicyclo[4.3.1]decan-8-yl)-9-azabicyclo[3.3.1]nonan-3-yl)-3-oxo-3,4-dihydroquinoxalin-2-yl)-2-(ethoxyimino)acetic acid]
> 20 µM: all assays above

CC(C)O/N=C(\C(=O)O)c1nc2ccccc2n([C@H]2C[C@H]3CCC[C@@H](C2)N3C2CC3CCCCC(C3)C2)c1=O (stereo partly drawn) [Compound 33, 2-(4-((1R,3R)-9-(bicyclo[4.3.1]decan-8-yl)-9-azabicyclo[3.3.1]nonan-3-yl)-3-oxo-3,4-dihydroquinoxalin-2-yl)-2-(isopropoxyimino)acetic acid]
> 20 µM: all assays above

CCON=C(C(=O)O)c1nc2ccccc2n([C@H]2C[C@H]3CC[C@@H](C2)N3C2CC3CCCCC(C3)C2)c1=O (stereo partly drawn) [Compound 36]
> 20 µM: all assays above

CC(C)ON=C(C(=O)O)c1nc2ccccc2n([C@H]2C[C@H]3CC[C@@H](C2)N3C2CC3CCCCC(C3)C2)c1=O (stereo partly drawn) [Compound 37, [4-((1S,3R,5R)-(1R,6S,8S)-8-bicyclo[4.3.1]dec-8-yl-8-aza-bicyclo[3.2.1]oct-3-yl)-3-oxo-3,4-dihydro-quinoxalin-2-yl]-isopropoxyimino-acetic acid]
> 20 µM: all assays above

NC(=O)CO/N=C(\C(=O)O)c1nc2ccccc2n([C@H]2C[C@H]3CCC[C@@H](C2)N3C2CC3CCCC(C3)C2)c1=O (stereo partly drawn) [Compound 38, (Z)-2-(2-amino-2-oxoethoxyimino)-2-(4-((1R,3R)-9-(bicyclo[3.3.1]nonan-3-yl)-9-azabicyclo[3.3.1]nonan-3-yl)-3-oxo-3,4-dihydroquinoxalin-2-yl)acetic acid]
> 20 µM: all assays above

NC(=O)CO/N=C(\CCC(=O)O)c1nc2ccccc2n([C@H]2C[C@H]3CCC[C@@H](C2)N3C2CC3CCCC(C3)C2)c1=O (stereo partly drawn) [Compound 39]
> 20 µM: all assays above

NC(=O)CO/N=C(\CCC(=O)O)c1nc2ccccc2n([C@H]2C[C@H]3CCC[C@@H](C2)N3C2CC3CCCCC(C3)C2)c1=O (stereo partly drawn) [Compound 41, (E)-4-(2-amino-2-oxoethoxyimino)-4-(4-((1R,3R)-9-(bicyclo[4.3.1]decan-8-yl)-9-azabicyclo[3.3.1]nonan-3-yl)-3-oxo-3,4-dihydroquinoxalin-2-yl)butanoic acid]
> 20 µM: all assays above

CNC(=O)CCC(=NOCC(=O)O)c1nc2ccccc2n([C@H]2C[C@H]3CCC[C@@H](C2)N3C2CC3CCCC(C3)C2)c1=O (stereo partly drawn) [Compound 42, 2-(((1-(4-((1R,1′R,3r,3′R,5S,5′S)-[3,9′-bi(9′-azabicyclo[3.3.1]nonan)]-3′-yl)-3-oxo-3,4-dihydroquinoxalin-2-yl)-4-(methylamino)-4-oxobutylidene)amino)oxy)acetic acid]
> 20 µM: all assays above

CNC(=O)/C(=N\OCC(=O)O)c1nc2ccccc2n([C@H]2C[C@H]3CCC[C@@H](C2)N3C2CC3CCCC(C3)C2)c1=O (stereo partly drawn) [Compound 43]
> 20 µM: all assays above

NC(=O)CCC(=NOCC(=O)O)c1nc2ccccc2n([C@H]2C[C@H]3CCC[C@@H](C2)N3C2CC3CCCC(C3)C2)c1=O (stereo partly drawn) [Compound 44]
> 20 µM: all assays above

NC(=O)CO/N=C(\C(=O)O)c1nc2ccccc2n([C@H]2C[C@H]3CCC[C@@H](C2)N3C2CC3CCCCC(C3)C2)c1=O (stereo partly drawn) [Compound 45, (Z)-2-(2-amino-2-oxoethoxyimino)-2-(4-((1R,3R)-9-(bicyclo[4.3.1]decan-8-yl)-9-azabicyclo[3.3.1]nonan-3-yl)-3-oxo-3,4-dihydroquinoxalin-2-yl)acetic acid]
> 20 µM: all assays above

COCCO/N=C(\C(=O)O)c1nc2ccccc2n([C@H]2C[C@H]3CCC[C@@H](C2)N3C2CC3CCCCC(C3)C2)c1=O (stereo partly drawn) [Compound 46]
> 20 µM: all assays above

COCCO/N=C(\C(=O)O)c1nc2ccccc2n([C@H]2C[C@H]3CCC[C@@H](C2)N3C2CC3CCCC(C3)C2)c1=O (stereo partly drawn) [Compound 49]
> 20 µM: all assays above

CON=C(C(=O)O)c1nc2ccccc2n([C@H]2C[C@H]3COC[C@@H](C2)N3C2CC3CCCCC(C3)C2)c1=O (stereo partly drawn) [Compound 50, [4-((1R,5S,7S)-(1S,6R,8R)-9-bicyclo[4.3.1]dec-8-yl-3-oxa-9-aza-bicyclo[3.3.1]non-7-yl)-3-oxo-3,4-dihydro-quinoxalin-2-yl]-methoxyimino-acetic acid]
> 20 µM: all assays above

CN(C)C(=O)C(=NOCC(=O)O)c1nc2ccccc2n([C@H]2C[C@H]3CCC[C@@H](C2)N3C2CC3CCCC(C3)C2)c1=O (stereo partly drawn) [Compound 51]
> 20 µM: all assays above

CC(O/N=C(\C(=O)O)c1nc2ccccc2n([C@H]2C[C@H]3CCC[C@@H](C2)N3C2CC3CCCC(C3)C2)c1=O)C(N)=O (stereo partly drawn) [Compound 52]
> 20 µM: all assays above

CC(C)C(O/N=C(\C(=O)O)c1nc2ccccc2n([C@H]2C[C@H]3CCC[C@@H](C2)N3C2CC3CCCC(C3)C2)c1=O)C(N)=O (stereo partly drawn) [Compound 53]
> 20 µM: all assays above

CNC(=O)C(=NOCC(=O)O)c1nc2ccccc2n([C@H]2C[C@H]3CCC[C@@H](C2)N3C2CC3CCCCC(C3)C2)c1=O (stereo partly drawn) [Compound 54]
> 20 µM: all assays above
